# Source: US10301277B2, “Substituted ureas and methods of treating mental illness using the same” (ZHEJIANG JINGXIN PHARMACEUTICAL CO., LTD., priority 2016, dated 2019)
# Assays:
# [1] = test system: MK-801-induced schizophrenia model; experiment: MK-801-induced schizophrenia model, open field running behavior; format: in vivo, Sprague-Dawley rats
# Method: (I) Modeling of MK-801-Induced Schizophrenia in Mice
# Each rat was placed in a soundproof box for 30 minutes on the day before the test to adapt. On the next day, each rat was administrated with the respective test compounds, and after 30 minutes, administrated intraperitoneally with a 0.3 mg/kg MK-801 solution at 5.0 mL/kg body weight of the rat to build a model of MK-801-induced schizophrenia in mice.
# (II) Observation of Open Field Running Behavior
# Mice were administered with MK-801 and then immediately placed in the soundproof box. The total distances of motion of mice within 2.5 hours were observed and recorded. Improvement rate=(total distance of model control−total distance of administration)/(total distance of model control)×100%. (III) Statistical Method
# All the data was expressed with x±SD and processed by SPSS17.0 software statistical package. T-test and one-way analysis of variance were performed to compare the mean of two samples, with P<0.05 as significant difference.
# [2] = Acute toxicity assay, single oral administration; conditions: ICR, mouse, in vivo, po
# Method: Acute Toxicity Assay of the Cyclohexane Derivatives of the Present Invention
# ICR mice orally administered with the compounds of the present invention were evaluated and their toxicity symptoms after oral administration were observed, as well as the mortality, which was calculated by Bliss method, thus the acute toxicities were compared.
# • i. Preparation of solvent: Tween-80 of an appropriate amount was diluted with deionized water to a concentration of […] (g/v) Tween-80. • ii. […]. Administration: the test compound and solvent medium control groups (0.5% Tween-80) were administered orally.
# Observations include but are not limited to: general condition, behavior, gait, eyes, mouth, nose, gastrointestinal tract, skin and hair and urogenital tract.
compound,measurement,setting,value
"CN(C)C(=O)N[C@H]1CC[C@H](CCN2CCN(c3cccc(Cl)c3Cl)CC2)CC1 [Cariprazine, reference compound]",total distances of the rats within 150 minutes compared with MK-801 model control,[1]; 0.3 mg/kg,decreased
same,inhibition of high spontaneous activity of MK-801-induced rats,"[1]; dose of 0.3 mg/kg, compared with MK-801 model control",significantly inhibited
same,Total Distance within 61-150 minutes,"[1]; single oral administration 0.3 mg/kg, MK-801 0.3 mg/kg i.p., x ± SD",168.25 ± 26.9 m
same,Improvement Rate,"[1]; single oral administration 0.3 mg/kg, versus MK-801 model control",45.69%
same,LD50 at 6 days,[2],75.3 mg/kg
